Data set [1] relates to retinal ganglion cells and optic nerve axons. Nature of the data set: In vivo retinal ganglion cell and optic nerve axon tests after optic nerve transection.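 On all read-outs here: adult male Sprague Dawley rats with bilateral intraorbital optic nerve transection after retrograde fluorogold labeling of retinal ganglion cells, examined on fixed retinas and optic nerve stumps.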 Conditions: for Efficacy in protecting retinal ganglion cell axons from degeneration following optic nerve transection: Table V; for RGC Counts (mean density of Fluoro-gold labeled retinal ganglion cells in 400 μm × 400 μm fields): 10 mg/kg/day sc.
Protocol: The extent of degeneration reduction or prevention in retinal ganglion cells and optic nerve axons was determined in a vision loss model utilizing surgical optic nerve transection to simulate mechanical damage to the optic nerve. The effects of several neuroimmunophilin FKBP ligands on retinal ganglion cells neuroprotection and optic nerve axon density was determined experimentally, comparing 14 day and 28 day neuroimmunophilin FKBP ligand treatments.
Retinal ganglion cells were pre-labeled by bilateral stereotaxic injection of the fluorescent retrogradely transported marker fluoro-gold (FG, 0.5 microliters of 2.5% solution in saline) at the coordinates of the LGNd (4.5 millimeters post β, 3.5 millimeters lateral, 4.6 millimeters below dura). Four days later, FG labeled rats underwent a second surgery for microsurgical bilateral intraorbital optic nerve transection 4-5 millimeters behind the orbit.
Experimental animals were divided into six experimental groups of six rats (12 eyes) per group. […] A second group received the same neuroimmunophilin FKBP ligand dose for 28 days.
All animals were sacrificed 90 days after optic nerve transection and perfused pericardially with formalin. All eyes and optic nerves stumps were removed. Cases were excluded from the study if the optic nerve vasculature was damaged or if FG labeling was absent in the retina.
Retinas were removed from eyes and prepared for wholemount analysis. For each group, five eyes with dense and intense FG labeling were selected for quantitative analysis using a 20 power objective. Digital images were obtained from five fields in the central retina (3-4 millimeters radial to optic nerve head).
Proximal and distal optic nerve stumps were identified, measured, and transferred to 30% sucrose saline. […] Sections including the region 1-2 mm behind the orbit were reacted for RT97 neurofilament immunohistochemistry. Analysis of optic nerve axon density was performed using a 63 power oil immersion lens, a Dage 81 camera, and the Simple Image Analysis program. RT97 positive optic nerve axons were counted in three 200 μm by 200 μm fields per nerve. The area of the nerve was also determined for each case at 10 power.

For the next data set, the system named is retinal ganglion cells. Nature of the data set: Retinal ischemia: degeneration of retinal ganglion cells, optic nerve axons and myelin. Conditions: 10 mg/kg s.c. 1 hour prior to ischemia and 10 mg/kg/day for next four days, 28 days after ischemia. In kind it is in vivo, rat. From the text: Retinal ganglion cells were retrogradely labeled in adult rats by bilateral injection of fluorogold in their lateral geniculate nuclei. Labeled ganglion cells in the normal rat retina appear as white profiles against the dark background (FIG. 1A). Complete retinal ischemia was produced by infusing normal saline solution into the retinal vitreous cavity of each eye until the intraocular pressure exceeded arterial blood pressure. 28 days after the ischemic episode extensive degeneration of retinal ganglion cell was evidenced by massive reduction in the density of fluorogold labeled cells (FIG. 1B).

The nature of data set [2]: Clearance (Table V comments, no method given). The data set is classed as in vitro ADME.
For another data set, the system named is aged mice. Nature of the data set: Morris watermaze spatial learning and memory in aged rodents. In kind it is in vivo. Conditions: aged impaired mice, 10 mg/kg daily, retention testing after 3 weeks of dosing. From the text:
The Morris watermaze is widely used for assessing spatial memory formation and retention in experimental animals. The test depends on the animals ability to utilize spatial visual information in order to locate a submerged escape platform in a water tank. It is important that the tank itself be as devoid of specific visual features as possible—thus, it is always circular in shape, the sides are kept smooth and in uniform dull colors, and the water is rendered opaque with nontoxic watercolor pigment or powdered milk. This is to ensure that the animal navigates only by the use of more distant visual cues, or by the use of intra-maze cues specifically provided by the experimenter. The animals' path, speed, and swim time are tracked with a ceiling camera for later computerized analysis. Over the course of several successive trials, spatial learning can therefore be defined as a drop of distance swum, or time elapsed, from placement in the tank until escape onto the invisible platform. The procedure involved using-three-month old (young) and 18-19 month old male C57BL/6Nia aged) mice which habituated to the well known and conventional Morris watermaze during a 4 trials/day, 3-4 day visible platform training phase. […] Swim Distances (cm) were analyzed in a 7×5 ANOVA including Groups and Blocks (1-5) as factors in the analysis, treating Blocks as a repeated measure.

In a further data set the target is FKBP12 (Homo sapiens, UniProt P62942). Nature of the data set: Inhibition of FKBP peptidyl-prolyl isomerase (rotamase) activity, apparent Ki. The data set is classed as biochemical.
Chain of FKBP12 (P62942 whole entry, species assumed): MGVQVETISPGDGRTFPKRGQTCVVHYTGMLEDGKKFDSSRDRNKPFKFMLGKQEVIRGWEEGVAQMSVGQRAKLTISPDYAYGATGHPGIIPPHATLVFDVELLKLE
Where [3] appears, read: ONT, 14 days treatment, 90 days after transection, ± SEM.
The mark [4] stands for this setting: ONT, 14 days treatment, 90 days after transection.
Setting [5] is: ONT, 28 days treatment, 90 days after transection.
Where [6] appears, read: ONT, 28 days treatment, 90 days after transection, ± SEM.
Where [7] appears, read: Table V comments, read-out: Ki rotomase.

Read-outs that look alike come from different tables or passages of the source. Marks after values point to notes of the source that are not given here.

Description for FKBP12: The inhibition of the prolyl peptidyl cis-trans isomerase activity of FKBP may be measured as an indicator of this affinity.
These values are obtained as apparent Ki's.
The cis-trans isomerization of an alanine-proline bond in a model substrate, N-succinyl-Ala-Ala-Pro-Phe-p-nitroanilide, is monitored spectrophotometrically in a chymotrypsin-coupled assay, which releases para-nitroanilide from the trans form of the substrate. The inhibition of this reaction caused by the addition of different concentrations of inhibitor is determined, and the data is analyzed as a change in first-order rate constant as a function of inhibitor concentration to yield the apparent Ki values.
In a plastic cuvette are added 950 mL of ice cold assay buffer (25 mM HEPES, pH 7.8, 100 mM NaCl), 10 mL of FKBP (2.5 mM in 10 mM Tris-Cl pH 7.5, 100 mM NaCl, 1 mM dithiothreitol), 25 mL of chymotrypsin (50 mg/ml in 1 mM HCl) and 10 mL of test compound at various concentrations in dimethyl sulfoxide. The reaction is initiated by the addition of 5 mL of substrate (succinyl-Ala-Phe-Pro-Phe-para-nitroanilide, 5 mg/mL in 2.35 mM LiCl in trifluoroethanol).
The absorbance at 390 nm versus time is monitored for 90 seconds using a spectrophotometer and the rate constants are determined from the absorbance versus time data files.

On to `CCC(C)(C)C(=O)C(=O)N1CCCCC1C(N)=O` (centres unmarked) [H], for which, in data set [1] (± SEM), the “Efficacy in protecting retinal ganglion cell axons from degeneration following optic nerve transection” value (from here on “Efficacy”) is 30.3% ± 8.0% SEM.

Turning to `O=C(SCCCc1ccccc1)C1CCCN1S(=O)(=O)Cc1ccccc1` (centres unmarked) [C], the “Efficacy” value in data set [1] (± SEM) is 60.4% ± 3.1 SEM.

In the case of `CCC(C)(C)C(=O)C(=O)N1CCC[C@H]1C(=O)OCCCc1cccnc1` [GPI 1046], in the data set on retinal ganglion cells, the “protection of fluorogold labeled retinal ganglion cells” value was “noticeable protection of a large proportion of the vulnerable ganglion cell population”. The molecule further returned a Clearance in data set [2] of 63.8 µL/min. In the data set on aged mice, the “spatial memory performance (swim distance) in retention testing” value was “significantly enhanced spatial memory performance”. In addition, the “preservation of axons of protected neurons in the proximal stump” value in data set [1] (Example 13, 10 mg/kg/day s.c. for 28 days, 90 days after transection) is recorded as “preserved the axons of virtually all protected neurons”. In data set [1] (Example 13, 10 mg/kg/day s.c. for 28 days, sacrificed 90 days after transection), the “perikaryal neuroprotection: ganglion cell population spared” value stood at 25%. Besides, in data set [1] (setting [3]), the “RGC Counts (mean density of Fluoro-gold labeled retinal ganglion cells in 400 μm × 400 μm fields)” value is on record as “small but not significant increase”; the “ON Axon density (RT97 labeled optic nerve axons in 200 μm × 200 μm region)” value was 569 ± 23; the “Proximal optic nerve myelin basic protein Density, % recovery” value turned out to be 1.6 ± 3.0 SEM % recovery. In data set [1] (setting [4]), the “Distal optic nerve myelin basic protein Density, loss” value is “slightly increase the density of myelin”; the “Distal optic nerve stump shrinkage (cross sectional area vs sham)” value is listed as “did not protect against shrinkage of the distal stump”; the “ON axon Count (axonal density multiplied by ON area)” value amounted to 6820; the “increased ON axon density (adjusted for optic nerve diameter)” value is 1.5×. In addition, the “RGC Counts (mean density of Fluoro-gold labeled retinal ganglion cells in 400 μm × 400 μm fields)” value in data set [1] (ONT, 28 days treatment, 90 days after transection, SEM) is 67.9 ± 5.8. Further, in data set [1] (setting [5]), the “Distal optic nerve stump, less shrinkage” value is recorded as “prevented cross sectional shrinkage of the distal stump”; the “ON axon Count (axonal density multiplied by ON area)” value is 22,861*; the “increased ON axon density (adjusted for optic nerve diameter)” value is recorded as 5.0×. In data set [1] (setting [6]), the “ON Axon density (RT97 labeled optic nerve axons in 200 μm × 200 μm region)” value was “significant increase” and the “Proximal optic nerve myelin basic protein Density, % recovery” value stood at 70 ± 6.3 SEM % recovery. Also, the “Efficacy” value in data set [1] (± SEM) is given as 60.5% ± 3.9 SEM.

`O=C(SCCCc1ccccc1)C1CCCN1C(=O)NC12CC3CC(CC(C3)C1)C2` (centres unmarked) [B]: in data set [1] (± SEM), the “Efficacy” value was 100.0% ± 5.2% SEM.

Turning to `CCC(C)(C)C(=O)C(=O)N1CCCC1C(=O)O` (centres unmarked) [L], the Ki at FKBP12 (setting [7]) is more than 7.74 µM. In data set [1] (± SEM), the “Efficacy” value is reported as 7.8% ± 3.0% SEM.

As for `CCC(C)(C)C(=O)C(=O)N1CCC[C@H]1C(=O)OCCCc1ccc[n+]([O-])c1` [Compound 1, 3-(3-Pyridyl)-1-propyl(2S)-1-(1,1-Dimethyl-1,2-dioxopentyl)-2-pyrrolidine-carboxylate, N-oxide], the Ki on FKBP12 (Table B, rotamase inhibition, read-out: Ki) is 0.225 µM.

On to `CCC(C)(C)C(=O)C(=O)N1CCCCC1C(=O)SCCC(c1ccccc1)c1ccccc1` (centres unmarked) [Compound K], for which the Clearance in data set [2] is 4.5 µL/min. The “Efficacy” value in data set [1] (± SEM) is recorded as 13.0% ± 4.2% SEM.

For `O=C(OCCCc1cccnc1)[C@@H]1CCCN1C(=S)NC1CCCCC1` [I], the “Efficacy” value in data set [1] (± SEM) was 23.8% ± 5.3 SEM.

In turn, `CCC(C)(C)C(=O)C(=O)N1CCCCC1C(=O)OC(CCc1ccccc1)CCc1ccccc1` (centres unmarked) [E] registered a Clearance in data set [2] (unit printed μl/ml) of 41.8 μl/ml.

In data set [2] (unit printed μl/ml), `CN(C)C(=O)N1CCCC1C(=O)SCCCc1ccccc1` (centres unmarked) [N] registered a Clearance of 21.9 μl/ml.

Regarding `CCC(C)(C)C(=O)C(=O)N1CCCCC1C(=O)O` (centres unmarked) [G], the Ki on FKBP12 (setting [7]) was more than 10 µM. The “Efficacy” value in data set [1] (± SEM) was 34.0% ± 4.8% SEM.

In the case of `CCC(C)(C)C(=O)C(=O)N1CCC[C@H]1C(=O)SCCC(c1ccccc1)c1ccccc1` [M], in data set [1] (± SEM), the “Efficacy” value was −6.3% + 3.9% SEM.

`CCC(C)(C)C(=O)C(=O)N1CCCC1C(=O)CCCCc1cccnc1` (centres unmarked) [J]: in data set [2], the Clearance was 1.5 µL/min. The “Efficacy” value in data set [1] (± SEM) is 15.8% ± 4.8% SEM.
